The source of these data is patent US20150080465A1 (priority 2013, published 2015).

The subject of data set [1] is patients with type 2 diabetes and overt nephropathy. The conditions noted are these: in vivo; cited from earlier work.
The conditions of data set [2]: monkeys, equivalent dosages orally in gelatin capsules; cited from earlier work.
Data set [3] concerns monocrotaline (MCT)-induced pulmonary arterial hypertension. The conditions noted are these: rat, in vivo.

With `COc1ccccc1Oc1c(NS(=O)(=O)c2ccc(C)cn2)nc(-c2ccncc2)nc1OC` [Avosentan], the “Fluid overload-related adverse events, serious and non-serious” value in data set [1] is listed as “increased only within the first month of treatment”. Take `COC(=O)C12CCC(C)(C)CC1C1C(=O)C=C3C4(C)C=C(C#N)C(=O)C(C)(C)C4CCC3(C)C1(C)CC2` (stereo not drawn) [Form B]: the Bioavailability result in data set [2] is given as “higher than that of Form A”. On to `CCCc1nn(C)c2c(=O)[nH]c(-c3cc(S(=O)(=O)N4CCN(C)CC4)ccc3OCC)nc12` [sildenafil], for which, in data set [3], the Pulmonary edema result is “completely abrogated”.
